What follows are compounds tested against T1, Human TRPC6 (Homo sapiens, UniProt Q9Y210) (assay: Evaluation of TRPC6 channel inhibitory activity (1), FLIPR Calcium 5 Assay Kit, OAG stimulation (Compound Nos. 1-1293)). Conditions: Human TRPC6 stably-expressing cells, OAG 30 μM, FLIPR Calcium 5 Assay Kit; read-out: Inhibitory activity (pIC50 class) (converted).
T1 construct: expressed in transfected cells
T1 sequence (Q9Y210 1-931): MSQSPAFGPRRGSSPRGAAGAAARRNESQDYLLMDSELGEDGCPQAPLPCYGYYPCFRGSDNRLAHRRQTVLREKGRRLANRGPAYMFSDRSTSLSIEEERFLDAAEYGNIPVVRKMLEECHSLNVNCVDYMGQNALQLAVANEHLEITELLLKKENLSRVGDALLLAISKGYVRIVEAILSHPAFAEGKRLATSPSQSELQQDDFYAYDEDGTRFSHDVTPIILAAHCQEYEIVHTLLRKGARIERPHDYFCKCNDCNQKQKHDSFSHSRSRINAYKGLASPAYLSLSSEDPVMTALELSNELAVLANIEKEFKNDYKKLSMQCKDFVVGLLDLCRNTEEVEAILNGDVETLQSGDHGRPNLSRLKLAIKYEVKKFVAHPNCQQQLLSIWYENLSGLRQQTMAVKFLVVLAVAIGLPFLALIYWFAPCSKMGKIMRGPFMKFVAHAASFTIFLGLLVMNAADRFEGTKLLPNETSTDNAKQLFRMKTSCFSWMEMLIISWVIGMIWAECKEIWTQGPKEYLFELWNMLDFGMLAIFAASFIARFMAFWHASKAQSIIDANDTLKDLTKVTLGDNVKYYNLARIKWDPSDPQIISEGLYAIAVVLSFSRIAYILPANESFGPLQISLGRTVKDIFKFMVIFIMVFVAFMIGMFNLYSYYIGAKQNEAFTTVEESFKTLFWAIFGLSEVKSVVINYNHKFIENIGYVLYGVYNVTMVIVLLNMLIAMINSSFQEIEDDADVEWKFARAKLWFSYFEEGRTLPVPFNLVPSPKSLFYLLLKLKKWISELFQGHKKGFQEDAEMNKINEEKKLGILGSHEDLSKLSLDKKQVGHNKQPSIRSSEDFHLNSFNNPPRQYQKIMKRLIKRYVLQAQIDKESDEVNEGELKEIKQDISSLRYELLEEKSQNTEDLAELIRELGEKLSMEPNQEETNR
Format: cell-based
Method in brief: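 Cells stably expressing human TRPC6, plated 24 h before, were loaded 30 min with Calcium 5 dye plus probenecid in HEPES-HBSS. Compound was added 20 min before OAG (30 μM final) and fluorescence tracked on FLIPR. Inhibition normalised to no-compound and no-compound/no-OAG wells; pIC50 from four-parameter fit, reported as +/++/+++ categories.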

| IC50 | Structure (SMILES) |
| --- | --- |
| < 10 nM | Cc1cc(Oc2cc(C#N)ccc2-c2ccc(CCN)cn2)n(C)n1 [compound 299, 4-[5-(2-aminoethyl)pyridin-2-yl]-3-(2,5-dimethylpyrazol-3-yl)oxybenzonitrile] |
| 10 to 1000 nM | Cn1nccc1Oc1cc(C#N)ccc1-c1ccc(CCN)cn1 [compound 300, 4-[5-(2-aminoethyl)pyridin-2-yl]-3-(2-methylpyrazol-3-yl)oxybenzonitrile] |
| < 10 nM | Cn1nc(-c2ccccc2)cc1Oc1cc(C#N)ccc1-c1ccc(C(O)C(C)(C)N)cn1 (stereo not shown) [compound 301, 4-[5-(2-amino-1-hydroxy-2-methylpropyl)pyridin-2-yl]-3-(2-methyl-5-phenylpyrazol-3-yl)oxybenzonitrile] |
| 10 to 1000 nM | Cc1nc(Oc2cc(C#N)ccc2-n2cc(C(O)C(C)(C)N)cn2)cc(N2CCOCC2)n1 (stereo not shown) [compound 302, 4-[4-(2-amino-1-hydroxy-2-methylpropyl)pyrazol-1-yl]-3-(2-methyl-6-morpholin-4-ylpyrimidin-4-yl)oxybenzonitrile] |
| 10 to 1000 nM | Cc1cc(Oc2cc(C#N)ccc2-c2ccc(C(O)C(C)(C)N)cn2)cc(N2CCOCC2)n1 (stereo not shown) [compound 303, 4-[5-(2-amino-1-hydroxy-2-methylpropyl)pyridin-2-yl]-3-(2-methyl-6-morpholin-4-ylpyridin-4-yl)oxybenzonitrile] |
| > 1000 nM | Cc1cc(Oc2cc(C#N)ccc2-n2cc(CCN)cn2)n(C)n1 [compound 304, 4-[4-(2-aminoethyl)pyrazol-1-yl]-3-(2,5-dimethylpyrazol-3-yl)oxybenzonitrile] |
| 10 to 1000 nM | Cc1cc(Oc2cc(C#N)ccc2-c2ncc(CCN)cn2)n(C)n1 [compound 305, 4-[5-(2-aminoethyl)pyrimidin-2-yl]-3-(2,5-dimethylpyrazol-3-yl)oxybenzonitrile] |
| < 10 nM | N#Cc1ccc(-c2ccc(CCN)cc2)c(Oc2cc(-c3ccccc3)no2)c1 [compound 306, 4-[4-(2-aminoethyl)phenyl]-3-[(3-phenyl-1,2-oxazol-5-yl)oxy]benzonitrile] |
| 10 to 1000 nM | Cc1cc(Oc2cc(C#N)ccc2-c2ccc(C(F)(F)CN)cn2)cc(N2CCOCC2)n1 [compound 307, 4-[5-(2-amino-1,1-difluoroethyl)pyridin-2-yl]-3-(2-methyl-6-morpholin-4-ylpyridin-4-yl)oxybenzonitrile] |
| 10 to 1000 nM | Cn1nc(-c2ccccc2)cc1Oc1cc(C#N)ccc1-c1ccc(C(F)(F)CN)cn1 [compound 308, 4-[5-(2-amino-1,1-difluoroethyl)pyridin-2-yl]-3-(2-methyl-5-phenylpyrazol-3-yl)oxybenzonitrile] |
| 10 to 1000 nM | CCOC(=O)c1cc(Oc2cc(C#N)ccc2-c2ccc(CCN)cn2)n(C)n1 [compound 309, ethyl 5-[2-[5-(2-aminoethyl)pyridin-2-yl]-5-cyanophenoxy]-1-methylpyrazole-3-carboxylate] |
| < 10 nM | Cn1nc(-c2ccccc2)cc1Oc1cc(C#N)ccc1-c1ncc(CN)cn1 [compound 310, 4-[5-(aminomethyl)pyrimidin-2-yl]-3-(2-methyl-5-phenylpyrazol-3-yl)oxybenzonitrile] |
| > 1000 nM | Cn1nccc1Oc1cc(C#N)ccc1-c1ncc(CCN)cn1 [compound 311, 4-[5-(2-aminoethyl)pyrimidin-2-yl]-3-(2-methylpyrazol-3-yl)oxybenzonitrile] |
| < 10 nM | Cn1nc(-c2ccccc2)cc1Oc1cc(C#N)ccc1-c1ccc(CCN)nn1 [compound 312, 4-[6-(2-aminoethyl)pyridazin-3-yl]-3-(2-methyl-5-phenylpyrazol-3-yl)oxybenzonitrile] |
| < 10 nM | Cn1nc(-c2ccccc2)cc1Oc1cc(C#N)ccc1-c1cnc(CCN)cn1 [compound 313, 4-[5-(2-aminoethyl)pyrazin-2-yl]-3-(2-methyl-5-phenylpyrazol-3-yl)oxybenzonitrile] |
| < 10 nM | Cn1nc(-c2ccccc2)cc1Oc1cc(C#N)ccc1-c1cnc(C(O)CN)cn1 (stereo not shown) [compound 314, 4-[5-(2-amino-1-hydroxyethyl)pyrazin-2-yl]-3-(2-methyl-5-phenylpyrazol-3-yl)oxybenzonitrile] |
| < 10 nM | Cc1cc(Oc2cc(C#N)ccc2-c2ncc(CCN)cn2)cc(C2CC2)n1 [compound 315, 4-[5-(2-aminoethyl)pyrimidin-2-yl]-3-(2-cyclopropyl-6-methylpyridin-4-yl)oxybenzonitrile] |

| IC50 | Structure (SMILES) |
| --- | --- |
| > 1000 nM | Cn1nc(C(=O)O)cc1Oc1cc(C#N)ccc1-c1ccc(CCN)cn1 [compound 316, 5-[2-[5-(2-aminoethyl)pyridin-2-yl]-5-cyanophenoxy]-1-methylpyrazole-3-carboxylic acid] |
| < 10 nM | Cn1nc(C2CC2)cc1Oc1cc(C#N)ccc1-c1ncc(CCN)cn1 [compound 317, 4-[5-(2-aminoethyl)pyrimidin-2-yl]-3-(5-cyclopropyl-2-methylpyrazol-3-yl)oxybenzonitrile] |
| < 10 nM | CCCCc1cc(Oc2cc(C#N)ccc2-c2ccc(C(O)CN)cn2)n(C)n1 (stereo not shown) [compound 318, 4-[5-(2-amino-1-hydroxyethyl)pyridin-2-yl]-3-(5-butyl-2-methylpyrazol-3-yl)oxybenzonitrile] |
| < 10 nM | CCCCc1cc(Oc2cc(C#N)ccc2-c2ncc(CCN)cn2)n(C)n1 [compound 319, 4-[5-(2-aminoethyl)pyrimidin-2-yl]-3-(5-butyl-2-methylpyrazol-3-yl)oxybenzonitrile] |
| < 10 nM | COc1ccccc1-c1cc(Oc2cc(C#N)ccc2-c2ccc(C(O)CN)cn2)n(C)n1 (stereo not shown) [compound 320, 4-[5-(2-amino-1-hydroxyethyl)pyridin-2-yl]-3-[5-(2-methoxyphenyl)-2-methylpyrazol-3-yl]oxybenzonitrile] |
| < 10 nM | Cn1nc(-c2ccccc2O)cc1Oc1cc(C#N)ccc1-c1ccc(C(O)CN)cn1 (stereo not shown) [compound 321, 4-[5-(2-amino-1-hydroxyethyl)pyridin-2-yl]-3-[5-(2-hydroxyphenyl)-2-methylpyrazol-3-yl]oxybenzonitrile] |
| 10 to 1000 nM | Cn1nc(-c2ccccc2OCc2ccccc2)cc1Oc1cc(C#N)ccc1-c1ccc(C(O)CN)cn1 (stereo not shown) [compound 322, 4-[5-(2-amino-1-hydroxyethyl)pyridin-2-yl]-3-[2-methyl-5-(2-phenylmethoxyphenyl)pyrazol-3-yl]oxybenzonitrile] |
| 10 to 1000 nM | Cc1cc(Oc2cc(C#N)ccc2-c2ccc(CN)cn2)n(C)n1 [compound 323, 4-[5-(aminomethyl)pyridin-2-yl]-3-(2,5-dimethylpyrazol-3-yl)oxybenzonitrile] |
| < 10 nM | CCc1cc(Oc2cc(C#N)ccc2-c2ncc(CN)cn2)n(C)n1 [compound 324, 4-[5-(aminomethyl)pyrimidin-2-yl]-3-(5-ethyl-2-methylpyrazol-3-yl)oxybenzonitrile] |
| < 10 nM | Cn1nc(C2CC2)cc1Oc1cc(C#N)ccc1-c1ncc(CN)cn1 [compound 325, 4-[5-(aminomethyl)pyrimidin-2-yl]-3-(5-cyclopropyl-2-methylpyrazol-3-yl)oxybenzonitrile] |
| < 10 nM | CCc1cc(Oc2cc(C#N)ccc2-c2ccc(CN)cn2)n(C)n1 [compound 326, 4-[5-(aminomethyl)pyridin-2-yl]-3-(5-ethyl-2-methylpyrazol-3-yl)oxybenzonitrile] |
| < 10 nM | Cn1nc(C2CC2)cc1Oc1cc(C#N)ccc1-c1ccc(CN)cn1 [compound 327, 4-[5-(aminomethyl)pyridin-2-yl]-3-(5-cyclopropyl-2-methylpyrazol-3-yl)oxybenzonitrile] |
| < 10 nM | Cc1cc(Oc2cc(C#N)ccc2-c2ncc(CN)cn2)cc(N2CCOCC2)n1 [compound 328, 4-[5-(aminomethyl)pyrimidin-2-yl]-3-(2-methyl-6-morpholin-4-ylpyridin-4-yl)oxybenzonitrile] |
| < 10 nM | Cc1cc(Oc2cc(C#N)ccc2-c2ccc(CN)cn2)cc(N2CCOCC2)n1 [compound 329, 4-[5-(aminomethyl)pyridin-2-yl]-3-(2-methyl-6-morpholin-4-ylpyridin-4-yl)oxybenzonitrile] |
| > 1000 nM | CCc1cc(Oc2cc(C#N)ccc2-c2ccc(CN)nc2)n(C)n1 [compound 330, 4-[6-(aminomethyl)pyridin-3-yl]-3-(5-ethyl-2-methylpyrazol-3-yl)oxybenzonitrile] |
| 10 to 1000 nM | Cn1nc(C2CC2)cc1Oc1cc(C#N)ccc1-c1ccc(CN)nc1 [compound 331, 4-[6-(aminomethyl)pyridin-3-yl]-3-(5-cyclopropyl-2-methylpyrazol-3-yl)oxybenzonitrile] |
| 10 to 1000 nM | Cc1cc(Oc2cc(C#N)ccc2-c2cnc(CN)cn2)cc(N2CCOCC2)n1 [compound 332, 4-[5-(aminomethyl)pyrazin-2-yl]-3-(2-methyl-6-morpholin-4-ylpyridin-4-yl)oxybenzonitrile] |

Reference: patent US20230167073A1 (Teijin Pharma Limited, priority 2020, published 2023)
